Here are results for four molecules from patent US5462861A, “Method for improving enzyme activities with noble gases” (American Air Liquide, Chicago Research Center, priority 1993, dated 1995).

Experiment [1] concerns Tyrosinase. The experiment is described as follows: Tyrosinase-L-tyrosine reaction, solution saturated with gas. It is filed as biochemical, Mushroom. To be noted: for effect: optimal reaction conditions, simple saturation of solution with gas, minus = inhibition; for effect on rate and final equilibrium of the tyrosinase-L-tyrosine reaction: various temperatures; for temperature dependence of the effect on tyrosinase: various temperatures (15-35° C.). How it is done: (§1) Solution preparation: Optimized w/v solutions are prepared by diluting the enzyme (units/ml) and the substrate (μg/ml) in appropriate buffer (optimized pH and molarity for enzymes). The solutions are used for gas experiments at once to avoid loss of activity. Various enzyme and substrate concentrations and inhibitors may be employed. Physical parameters are varied as required.
(§2) Preparation of samples: Cuvets are filled with 2 ml of substrate solution by means of a gas-tight syringe. Gas-tight serum vials are filled with enzyme and solvent. Sufficient gas is consecutively bubbled in the cuvets and serum vials, with a 1-hr wait between injections to maximize equilibration of gas. All syringes and dead spaces are purged before filling with the appropriate gas. The amount of gas used has been measured sufficient to saturate the solution required.
(§3) Spectrophotometric time-drive, reaction rate, and kinetic analyses: cuvets and serum vials are saturated with gas 40 minutes before the run. A gas-filled syringe is used to retrieve 0.5 ml of enzyme solution to avoid air contact. The 0.5 ml syringe injections of enzyme are made simultaneously to effect a common starting time to for the samples. 7 gases (air, O2, N2, Ne, Ar, Kr, Xe) are run at various temperatures each (from 0° to 60° ). Changes in the rate or final equilibrium of the reaction versus ambient air are recorded. Comparison is also made with added oxygen, and with deoxygenation. Some samples are also prepared under pressure.
1. Solution preparation: 10% w/v solutions are prepared by diluting the enzyme (units/ml) and the substrate (μg/ml) in Sodium Phosphate buffer (pH 6.85, optimized pH for enzymes). The solutions are stored in refrigerator (0°-5° C.) and used for gas experiments within 2 or 3 days to avoid loss of activity.
6. Preparation of run samples: Acrylic cuvets are filled with 2 ml of substrate solution by means of a gas tight syringe. Gastight serum vials are filled with enzyme. 3×10 cc of gas are consecutively bubbled in the cuvets and serum vials, with a […] between injections. This represents a 10× displacement of dead volume while maximizing equilibration of gas. All syringes and dead spaces are purged before filling with the appropriate gas. After the third 10 cc injection, the cuvets and serum vials are left overnight under two 10 cc syringes filled with the appropriate gas in refrigerator at 0°-5° C.
8. Spectrophotometric runs: The cuvets and serum vials are filled with 10 cc of gas 40 min before the run. A gas-filled syringe is used to retrieve 0.5 ml of enzyme solution to avoid air contact. The 0.5 ml syringe injections of enzyme are made simultaneously to effect a common starting time t0 for the samples. Seven gases (air, O2, N2, Ne, Ar, Kr, Xe) are run at five temperatures each (15° C., 20° C., 25° C., 30° C., 35° C.). Changes in the rate or final equilibrium of the reaction versus ambient air are recorded.
The optimal conditions are [E]/[S] (100 μg/ml)/(100 μg/ml), the changes in absorbance being observed at 305 nm.
3×10 cc of gas are bubbled in the silicone-sealed cuvets and serum vials (T-3754, T-7755), with an interval of 20 min (at 0°-5°C.) between each gas injection.
a. The silicone-sealed cuvets are removed from the refrigerator 40 min before the experimental run, filled with 10 cc of gas and left at room temperature (26° C.) under two 10 cc syringes.
The 0.5 ml syringe injections of enzyme are made simultaneously to effect a common starting time t0 for the samples.
200 points, 18 s intervals 1 hr run

Experiment [2] addresses Glucose oxidase (Aspergillus niger, UniProt P13006). The experiment can be described thus: Glucose oxidase activity under gas. It is filed as biochemical. To be noted: for effect on glucose oxidase: FIG. 28; for effect: minus = inhibition, dependent upon temperature and substrate concentration. On the procedure: as §1, §2, §3
Experiment [3] has as its system transferase enzymes. The experiment can be described thus: Transferases, effects for the class. It is filed as biochemical. How it is done:
as §1
(§4) Preparation of samples: Cuvets are filled with 2 ml of substrate solution by means of a gas-tight syringe. Gas-tight serum vials are filled with enzyme and solvent. Sufficient gas is consecutively bubbled in the cuvets and serum vials, with a 1-hr wait between injections to maximize equilibration of gas. […] The amount of gas used has been measured sufficient to saturate the solution required.
(§5) Spectrophotometric time-drive, reaction rate, and kinetic analyses: cuvets and serum vials are saturated with gas 40 minutes before the run. […] Changes in the rate or final equilibrium of the reaction versus ambient air are recorded. […]
(§6) In a complete experiment, an enzyme at optimal pH and buffering salt concentration is reacted with 5 substrate concentrations in solution with noble gas at 1 atm. […] The reaction is monitored colorimetrically in a scanning spectrophotometer in real time, and the signals are treated mathematically to obtain rate and yield differences. […]

The test system of experiment [4] is Aspartate aminotransferase. The experiment can be described thus: Aspartate aminotransferase activity under gas. To be noted: for effect on aspartate aminotransferase: FIG. 30; for effect: minus = inhibition. It counts as biochemical. How it is done: as §1, §2, §3
For experiment [5], the system named is α-D-glucosidase. The experiment can be described thus: α-D-glucosidase activity under gas. To be noted: for effect on α-glucosidase activity: 60° C., FIG. 43; for effect on α-D-glucosidase: FIG. 31. It is filed as biochemical. On the procedure: (§7) Solution preparation: Optimized w/v solutions are prepared by diluting the enzyme (units/ml) and the substrate (μg/ml) in appropriate buffer (optimized pH and molarity for enzymes). The solutions are used for gas experiments at once to avoid loss of activity. Various enzyme and substrate concentrations and inhibitors may be employed. Physical parameters are varied as required. […] Gas-tight serum vials are filled with enzyme and solvent. Sufficient gas is consecutively bubbled in the cuvets and serum vials, with a 1-hr wait between injections to maximize equilibration of gas. All syringes and dead spaces are purged before filling with the appropriate gas. The amount of gas used has been measured sufficient to saturate the solution required. Spectrophotometric time-drive, reaction rate, and kinetic analyses: cuvets and serum vials are saturated with gas 40 minutes before the run. A gas-filled syringe is used to retrieve 0.5 ml of enzyme solution to avoid air contact. […] Changes in the rate or final equilibrium of the reaction versus ambient air are recorded. Comparison is also made with added oxygen, and with deoxygenation. Some samples are also prepared under pressure.

The target in experiment [6] is Gamma-glutamyl transpeptidase (Homo sapiens, UniProt P19440). The experiment is described as follows: Gamma-glutamyl transpeptidase activity under gas. It counts as biochemical. As to conditions: for effect on α-glutamyltranspeptidase: FIG. 29; for effect: minus = inhibition. On the procedure: as §1, §2, §3
In a complete experiment, an enzyme at optimal pH and buffering salt concentration is reacted with 5 substrate concentrations in solution with noble gas at 1 atm. […] Controls are also run after evacuation of solution by vacuum. The reaction is monitored colorimetrically in a scanning spectrophotometer in real time, and the signals are treated mathematically to obtain rate and yield differences. Sample numbers are constant and sufficient to ensure significance of results. All parameters are independently controlled and measured, and more complex experiments are occasionally carried out.

The subject of experiment [7] is hydrolases. The experiment is described as follows: Hydrolases, effects for the class. It is filed as biochemical. How it is done:
as §1, §4, §5, §6

For experiment [8], the system named is lactate dehydrogenase. The experiment is described as follows: Lactate dehydrogenase activity under gas. It counts as biochemical. As to conditions: 10° C., FIG. 42. On the procedure:
as §7

Experiment [9] deals with lyase enzymes. The experiment can be described thus: Lyases, effects for the class. It counts as biochemical. How it is done:
as §1, §4, §5, §6

Each structure is given as a SMILES string. “Also recorded” adds a separate entry of the source.

Sequence of Glucose oxidase (P13006 17-605): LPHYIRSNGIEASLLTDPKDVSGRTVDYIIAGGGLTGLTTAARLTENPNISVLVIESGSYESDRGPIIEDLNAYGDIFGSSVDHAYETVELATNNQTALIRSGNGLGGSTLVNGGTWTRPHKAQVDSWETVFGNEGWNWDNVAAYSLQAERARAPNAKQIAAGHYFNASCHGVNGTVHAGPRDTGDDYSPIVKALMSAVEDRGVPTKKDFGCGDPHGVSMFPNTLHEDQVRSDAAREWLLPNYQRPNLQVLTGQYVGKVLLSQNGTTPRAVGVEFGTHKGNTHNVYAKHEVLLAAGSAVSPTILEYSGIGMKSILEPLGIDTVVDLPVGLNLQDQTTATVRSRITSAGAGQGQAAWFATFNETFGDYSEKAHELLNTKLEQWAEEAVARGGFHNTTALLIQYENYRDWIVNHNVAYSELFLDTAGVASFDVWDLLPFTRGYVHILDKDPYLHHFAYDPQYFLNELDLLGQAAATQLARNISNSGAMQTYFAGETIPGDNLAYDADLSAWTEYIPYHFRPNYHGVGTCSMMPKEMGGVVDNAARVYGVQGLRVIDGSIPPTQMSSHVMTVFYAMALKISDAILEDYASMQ
Sequence of Gamma-glutamyl transpeptidase (P19440 1-380 limits assumed): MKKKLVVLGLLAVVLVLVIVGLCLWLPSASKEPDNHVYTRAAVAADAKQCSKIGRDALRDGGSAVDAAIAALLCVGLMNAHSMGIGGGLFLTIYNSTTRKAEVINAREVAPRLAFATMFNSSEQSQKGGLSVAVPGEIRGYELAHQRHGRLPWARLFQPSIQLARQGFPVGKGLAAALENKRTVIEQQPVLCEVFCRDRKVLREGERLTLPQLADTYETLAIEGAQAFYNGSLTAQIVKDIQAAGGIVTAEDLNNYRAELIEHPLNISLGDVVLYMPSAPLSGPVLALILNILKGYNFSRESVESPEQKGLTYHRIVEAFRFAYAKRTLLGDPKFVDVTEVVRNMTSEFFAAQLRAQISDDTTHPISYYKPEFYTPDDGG

For `[Kr]` [Kr, krypton], the “effect on tyrosinase-L-tyrosine reaction” value in experiment [1] (15° C.) is recorded as “strong effects; also recorded: large inhibitory effect”; in experiment [1] (20° C., listed as Krypton) it was “lesser inhibitory effect”; in experiment [1] (20° C., listed as krypton), “effective inhibitors; also recorded: almost of equal effect; also recorded: lesser effect; also recorded: inhibiting effects”; in experiment [1] (25° C.), “inhibitory effect”; in experiment [1] (30° C.), “inhibitory effect”. In addition, the effect in [1] (25° C.) is -73%; in [2], -92.7%; in [4], -82%; in experiment [6], -8%. In experiment [1], the “effect on rate and final equilibrium of the tyrosinase-L-tyrosine reaction” value (shortened to “effect on rate and final equilibrium”) is recorded as “inhibition”. Also, the “temperature dependence of the effect on tyrosinase” value (from here on “temperature dependence”) in [1] was “direct inverse (negative) relationship; also recorded: activity transition occuring between 20 °C and 25 °C”. In addition, the “effect on glucose oxidase” value in experiment [2] is on record as “inhibition”. In addition, in [3], the effect on transferases result was “largest inhibitory or effect”. Moreover, in experiment [4], the “effect on aspartate aminotransferase” value is “inhibition”. Further, in [5], the “effect on α-glucosidase activity” value was “inhibited”. In experiment [6], the “effect on α-glutamyltranspeptidase” value was “inhibition”. The effect on hydrolases result in [7] is reported as “least such effect”.
As to `[Ne]` [Ne, neon], the “effect on tyrosinase-L-tyrosine reaction” value in experiment [1] (15° C.) is recorded as “strong effects; also recorded: large inhibitory effect”; in [1] (20° C.) it was “effective inhibitors; also recorded: dramatically inhibit; also recorded: inhibiting effects”; in [1] (25° C.), “inhibitory effect”; in experiment [1] (30° C.), “inhibitory effect”. Also, the effect in experiment [1] (25° C.) is -46.7%; in [2] it was -61.7%; in [4], -12%; in experiment [6], -3%. In [1], the “temperature dependence” value was “activity transition occuring between 20 °C and 25 °C; also recorded: positively temperature dependent”. Besides, in experiment [2], the “effect on glucose oxidase” value was “inhibition”. For the same molecule, the effect on transferases result in experiment [3] is reported as “lowest inhibitory or enhancing effect”. In addition, in experiment [5], the “effect on α-D-glucosidase” value is listed as “enhancement”. Besides, the “effect on lactate dehydrogenase” value in experiment [8] is “inhibiting”.
Regarding `[Xe]` [Xe, xenon], the “effect on tyrosinase-L-tyrosine reaction” value in experiment [1] (15° C.) is listed as “small, but significant inhibitory effect; also recorded: small but significant inhibitory effect”; in experiment [1] (20° C.) it was “inhibits the tyrosinase-L-tyrosine reaction quite strongly; also recorded: dramatically inhibit; also recorded: inhibiting effects”; in experiment [1] (25° C.), “inhibitory effect”; in experiment [1] (30° C., listed as Xenon), “inhibits the reaction much better than other gases”; in experiment [1] (30° C., listed as xenon), “inhibitory effect”. Moreover, the effect is -73% in experiment [1] (25° C.), -91.6% in [2], -17% in experiment [4] and -7% in [6]. Moreover, the effect on tyrosinase result in [1] (26° C.) is reported as “very large inhibition; also recorded: optimal inhibition curve”; in experiment [1] (equal w/w, FIG. 5) it was “inhibition”. Also, the “area of run curve” value in experiment [1] (26° C., FIG. 6) was approximately 3037 μ. Further, the “inhibition of air rate” value in [1] (26° C., FIG. 6, estimated from curve areas) is approximately 72.92%. The “total area as % of air area” value in experiment [1] (26° C., FIG. 6, 60 min) is reported as approximately 27.08%. The “% total area” value in experiment [1] (26° C., FIG. 6, total = air + xenon areas) was approximately 21.31. Further, the “temperature dependence” value was “interacts inversely with temperature” in experiment [1] (listed as Xenon); “at least two activity transitions; also recorded: large difference in xenon activity between 20 °C and 25 °C; also recorded: interacts inversely with temperature; also recorded: large difference in xenon activity between 20° and 25 °C” in [1] (listed as xenon). The “effect on rate and final equilibrium” value in [1] (listed as Xenon) was “significantly inhibits the rate and depresses the final equilibrium”; in [1] (listed as xenon) it was “inhibits the equilibrium of the tyrosinase-L-tyrosine reaction better than other gases; also recorded: inhibition”. Also, in experiment [2], the “effect on glucose oxidase” value is recorded as “inhibition”. For the same molecule, the “effect on aspartate aminotransferase” value in experiment [4] is reported as “inhibition”. Moreover, the “effect on α-glucosidase activity” value in experiment [5] is recorded as “enhanced”. The effect on lyases result in [9] is listed as “largest enhancing effect”. The “effect on lactate dehydrogenase” value in experiment [8] is given as “enhancing”. For the same molecule, in experiment [6], the “effect on α-glutamyltranspeptidase” value was “inhibition”. Further, in [7], the effect on hydrolases result is recorded as “largest enhancing effect”.
Take `N#N` [N2, nitrogen, reference compound]: the “effect on tyrosinase-L-tyrosine reaction” value in experiment [1] (20° C., listed as Nitrogen) is “inhibits the reaction fairly well”. Moreover, the “effect on tyrosinase-L-tyrosine reaction” value in experiment [1] (20° C., listed as nitrogen) was “lesser inhibitory effect”. The “effect on tyrosinase-L-tyrosine reaction” value in experiment [1] (25° C.) was “inhibit at a lesser level than the other noble gases”. In addition, in experiment [1], the “effect on rate and final equilibrium” value is recorded as “effective in inhibiting tyrosinase activity; also recorded: inhibition”; the “temperature dependence” value is “transitional maxima is observed after 20 °C”. Also, the “effect on glucose oxidase” value in experiment [2] is given as “inhibition”. In [5], the “effect on α-glucosidase activity” value was “enhanced” and the “effect on α-D-glucosidase” value is “enhancement”.
